Laboratory results published in ChEMBL document CHEMBL1201862, “PubChem BioAssay data set” (2004).
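Where inhibition never reached the appropriate level, the endpoint shown equals the highest concentration tested. Otherwise, values were interpolated linearly from a five-concentration, 48-hour dose response in 96-well plates. Here, GI50 denotes the concentration required for 50% inhibition of growth.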 Activity calls are given as the source filed them. Cut-off read from the data, not from the text of the source: active = GI50 up to about 1.1 µM and inactive = higher.

Tests used:
Assay in all cases: growth of human tumour cells (NCI), 48 h
HT-29 = system: HT-29
OVCAR-3 = system: OVCAR-3
M14 = system: M14
A498 = system: A498
NCI-H226 = system: NCI-H226
MDA-N = system: MDA-N
SR = system: SR
SK-MEL-28 = system: SK-MEL-28
SK-MEL-2 = system: SK-MEL-2
TK-10 = system: TK-10
A549 = system: A549
MCF7 = system: MCF7
Malme-3M = system: Malme-3M
SW-620 = system: SW-620
RXF 393 = system: RXF 393
HL-60 = system: HL-60
CAKI-1 = system: CAKI-1
HOP-92 = system: HOP-92
PC-3 = system: PC-3
SF-295 = system: SF-295

SMILES	GI50 (HT-29)	GI50 (OVCAR-3)	GI50 (M14)	GI50 (A498)	GI50 (NCI-H226)	GI50 (MDA-N)	GI50 (SR)	GI50 (SK-MEL-28)	GI50 (SK-MEL-2)	GI50 (TK-10)	GI50 (A549)	GI50 (MCF7)	GI50 (Malme-3M)	GI50 (SW-620)	GI50 (RXF 393)	GI50 (HL-60)	GI50 (CAKI-1)	GI50 (HOP-92)	GI50 (PC-3)	GI50 (SF-295)
COc1cc(/C=C2\C(=O)N(Cc3ccccc3)C(c3ccccc3)S2(=O)=O)cc(OC)c1OC (stereo not given)	51.6 µM (inactive)	47.3 µM (inactive)	52.7 µM (inactive)	21.4 µM (inactive)	50.6 µM (inactive)	61.8 µM (inactive)	14.3 µM (inactive)	93.8 µM (inactive)	27.1 µM (inactive)	36.1 µM (inactive)	29.9 µM (inactive)	26.3 µM (inactive)	39.9 µM (inactive)	79.1 µM (inactive)	62.7 µM (inactive)	5.13 µM (inactive)	> 100 µM (inactive)	50.2 µM (inactive)	43 µM (inactive)	27 µM (inactive)
CC12OOC(c3ccccc31)c1c2ccc2ccccc12 (stereo not given)	2.62 µM (inactive)	2.26 µM (inactive)	9.23 µM (inactive)	17.6 µM (inactive)	18.7 µM (inactive)	5.53 µM (inactive)	0.807 µM (active)	13.8 µM (inactive)	12.1 µM (inactive)	9.68 µM (inactive)	3.73 µM (inactive)	13.2 µM (inactive)	2.3 µM (inactive)	1.95 µM (inactive)	1.18 µM (inactive)	0.334 µM (active)	0.641 µM (active)	2.44 µM (inactive)	5.66 µM (inactive)	7.11 µM (inactive)
O=C(N[C@H]1CCC[C@H]1C(=O)Nc1ccc(C(F)(F)F)cc1)OCc1ccccc1	> 100 µM (inactive)	> 100 µM (inactive)	> 100 µM (inactive)	> 100 µM (inactive)	65.3 µM (inactive)	> 100 µM (inactive)	> 100 µM (inactive)	> 100 µM (inactive)	> 100 µM (inactive)	> 100 µM (inactive)	> 100 µM (inactive)	> 100 µM (inactive)	> 100 µM (inactive)	> 100 µM (inactive)	> 100 µM (inactive)	> 100 µM (inactive)	> 100 µM (inactive)	> 100 µM (inactive)	> 100 µM (inactive)	> 100 µM (inactive)
O=C(c1ccccc1)N1C(=S)N(c2ccccn2)C(=N/c2ccccc2)/C1=N\c1ccccc1	11.5 µM (inactive)	18.2 µM (inactive)	55.6 µM (inactive)	> 66.5 µM (inactive)	> 69.3 µM (inactive)	11.4 µM (inactive)	3.86 µM (inactive)	22.3 µM (inactive)	13.6 µM (inactive)	25.1 µM (inactive)	27.5 µM (inactive)	60.8 µM (inactive)	20 µM (inactive)	5.19 µM (inactive)	5.11 µM (inactive)	3.66 µM (inactive)	10.5 µM (inactive)	6.67 µM (inactive)	9.84 µM (inactive)	25.5 µM (inactive)
C/C(=C/c1ccccc1)CN(C(=O)/C=C\Sc1ccccc1)C(C)(C)C	36.4 µM (inactive)	> 75.3 µM (inactive)	> 100 µM (inactive)	> 100 µM (inactive)	> 94.4 µM (inactive)	> 100 µM (inactive)	19.6 µM (inactive)	> 100 µM (inactive)	> 75.9 µM (inactive)	> 100 µM (inactive)	60.1 µM (inactive)	65.2 µM (inactive)	> 100 µM (inactive)	> 100 µM (inactive)	> 100 µM (inactive)	28 µM (inactive)	> 100 µM (inactive)	4.85 µM (inactive)	> 68.7 µM (inactive)	> 100 µM (inactive)
N#CC1=C(S)N(C2OC(CO)C(O)C(O)C2O)C(c2ccccc2)=CC1c1cccs1 (stereo not given)	17 µM (inactive)	27.9 µM (inactive)	33.3 µM (inactive)	> 10 µM (inactive)	16.6 µM (inactive)	15.4 µM (inactive)	23 µM (inactive)	21.1 µM (inactive)	22.5 µM (inactive)	29 µM (inactive)	20 µM (inactive)	15.3 µM (inactive)	19.3 µM (inactive)	16.6 µM (inactive)	20 µM (inactive)	28.9 µM (inactive)	23.1 µM (inactive)	23.3 µM (inactive)	15.1 µM (inactive)	17.5 µM (inactive)
Clc1ccc(-c2nc3cc(C45CC6CC(CC(C6)C4)C5)ccc3[nH]2)cc1	3.72 µM (inactive)	21.7 µM (inactive)	17 µM (inactive)	> 95.7 µM (inactive)	> 65 µM (inactive)	32.1 µM (inactive)	5.64 µM (inactive)	75 µM (inactive)	> 100 µM (inactive)	40.2 µM (inactive)	14.8 µM (inactive)	18.5 µM (inactive)	24.5 µM (inactive)	19.3 µM (inactive)	72.6 µM (inactive)	2.07 µM (inactive)	> 59.3 µM (inactive)	17.7 µM (inactive)	14.3 µM (inactive)	57.7 µM (inactive)
COCCNC1CCC(=O)c2[nH]c3ccccc3c21 (stereo not given)	> 100 µM (inactive)	40.2 µM (inactive)	> 100 µM (inactive)	> 100 µM (inactive)	> 100 µM (inactive)	> 100 µM (inactive)	> 100 µM (inactive)	> 100 µM (inactive)	> 100 µM (inactive)	> 100 µM (inactive)	> 100 µM (inactive)	> 100 µM (inactive)	> 100 µM (inactive)	> 100 µM (inactive)	> 100 µM (inactive)	> 100 µM (inactive)	> 100 µM (inactive)	> 100 µM (inactive)	> 100 µM (inactive)	> 100 µM (inactive)
COc1ccc([C@@]23Oc4cc(OC)cc(OC)c4[C@]2(O)[C@H](O)[C@H](C(=O)N(C)C)[C@H]3c2ccccc2)cc1 [ROCAGLAMIDE]	0.00224 µM (active)	0.056 µM (active)	0.00327 µM (active)	0.00791 µM (active)	0.0113 µM (active)	0.00355 µM (active)	0.00162 µM (active)	0.00689 µM (active)	0.0197 µM (active)	0.0146 µM (active)	0.00353 µM (active)	0.00292 µM (active)	0.00429 µM (active)	0.00299 µM (active)	0.0206 µM (active)	0.00383 µM (active)	0.0292 µM (active)	0.0138 µM (active)	0.00836 µM (active)	0.0045 µM (active)
O=C(O)CC(CC(=O)O)C(=O)O [TRICARBALLYLIC ACID]	> 100 µM (inactive)	> 100 µM (inactive)	> 100 µM (inactive)	> 100 µM (inactive)	> 100 µM (inactive)	> 100 µM (inactive)	> 100 µM (inactive)	> 100 µM (inactive)	> 100 µM (inactive)	> 100 µM (inactive)	> 100 µM (inactive)	> 100 µM (inactive)	> 100 µM (inactive)	> 100 µM (inactive)	> 100 µM (inactive)	> 100 µM (inactive)	> 100 µM (inactive)	> 100 µM (inactive)	> 100 µM (inactive)	> 100 µM (inactive)
